Reference: publication PMC5450702 (Toxins, 2017)

Columns and labels:
mice = assay: CFA-induced inflammation and thermal hyperalgesia; type: in vivo, CD-1 mice
Description: All experiments were approved by the Animal Care and Use Committee of the Branch of the IBCh RAS (Pushchino, Russia) protocol number No. 492/16. Adult male CD-1 mice (weight 20–30 g; obtained from the Animal Breeding Facility Branch of Shemyakin-Ovchinnikov Institute of Bioorganic Chemistry, Russian Academy of Sciences, Pushchino, Russia Federation) were housed at room temperature (23 ± 2 °C) and subjected to a 12 h light–dark cycle with food and water available ad libitum. […] The significance of the data was determined by Analysis of variance (ANOVA) followed by Turkey’s post-hoc test. Data are presented as mean ± SEM.
Paw inflammation and thermal hyperalgesia was induced using Complete Freund’s Adjuvant (CFA) suspended in an oil/saline (1:1) emulsion. The mice were injected with 20 µL of CFA emulsion into the plantar surface of the left hind-paw. The control mice were injected with 20 µL of saline. […] Paw withdrawal latency was recorded using a hot plate (53 °C) 30 min after peptide or saline administration. […] Percent inflammation was calculated according to the formula ((Postdose paw diameter − Naive paw diameter)/(Predose paw diameter − Naive paw diameter)) × 100.

TRPA1 = settings: ref [53]; cited from earlier work
Excerpt: Most probably, this peptide can potentiate and defunctionalize the TRPA1 receptor on sensory neurons or desensitize neurons. […] In our study, defunctionalization of ...

[1] = tested on: myocardial voltage gated Na^+ channel; parameters: method as in PMID 1686683; settings: ref [41]; cited from earlier work
[2] = ref [45], cited from earlier work
Description: The capability of defensins to interact with microbial membranes is determined by the shape of the molecules, the ratio of polar to hydrophobic residues on the peptide surface, and the total positive charge given through basic amino acids rather than by their individual primary structures. Usually, increasing the overall positive charge will increase the antimicrobial activity of AMPs due to the selective action of AMPs on negatively charged bacterial membranes. Indeed, the AMP cryptidin-4 (Crp4, charge +8) more effectively associates with negatively charged biological membranes than ne ...

[3] = ref [11]; cited from earlier work
sodium channels = settings: ref [11]; cited from earlier work

For `CCC(=N\O)/C(C)=C/c1ccc(F)cc1` [A-967079], the “effect of TRPA1 antagonist on Ueq 12-1 action, CFA-induced inflammation” value (mice; A-967079 20 mg/kg p.o. 1 h before Ueq 12-1 0.2 mg/kg i.v.) was “completely blocked the effect of peptide Ueq 12-1” and the “effect of TRPA1 antagonist on Ueq 12-1 action, thermal hyperalgesia” value (mice; A-967079 20 mg/kg p.o., Ueq 12-1 0.2 mg/kg i.v., n = 7–8) was “completely blocked the effect of peptide Ueq 12-1”.

In the case of `C=C1C(=O)O[C@H]2[C@H]1CC/C(C)=C/CC[C@@]1(C)O[C@@H]21` [parthenolide], the TRPA1 activity (TRPA1) is given as “partial agonist of TRPA1”.

In the case of “Anthopleurin-A: 49-residue polypeptide from Anthopleura xanthogrammica”, the “effect on myocardial voltage gated Na^+ channel” value [1] is listed as “delayed inactivation”.

In the case of “cryptidin-4 (Crp4: mouse alpha-defensin 4 antimicrobial peptide (LRGLLCYCRKGHCKRGERVRGTCGIRFLYCCPRR; UniProt P28311 59-92, looked up)”, the charge [2] is given as “+8” and the association with membranes ([2]; versus neutral membranes) is given as “more effectively associates with negatively charged biological membranes than neutral membranes”.

For neurotoxin 2 (ATX-II), the antimicrobial properties [3] is listed as “have antimicrobial properties” and the “effect on sodium channels gating” value (sodium channels) is listed as “affect sodium channels gating”.
